# Tested on: β-catenin-TCF-mediated reporter transcription activity in Colo 205 cells
# Test: Colo 205 reporter assay (TCF/LEF luciferase)
# Type: cell-based
# Details: Colo 205 cells with stably transfected TCF/LEF luciferase reporter; five hours after addition of compound; read-out: TCF reporter Colo205
# Procedure, shortened: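 Luciferase signal from a TCF/LEF-driven reporter, stably integrated in Colo 205 colon cancer cells, was measured 5 h after compound addition.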
row,IC50,Compound
1,≥ 5000 nM,"CC(=O)NCCCC[C@H](N)C(=O)N(Cc1cnn(Cc2ccc(C(F)(F)F)nc2)c1)c1nc(C)c2c(n1)N(C)[C@@H](C)C(=O)N2 [Compound 404, (7S)-6-acetamido-2-amino-N-((1-((6-(trifluoromethyl)pyridin-3-yl)methyl)-1H-pyrazol-4-yl)methyl)-N-((S)-4,7,8-trimethyl-6-oxo-5,6,7,8-tetrahydropteridin-2-yl)hexanamide]"

# Same assay, conditions: Homo sapiens, COLO 205, 5 h, Colo 205 TCF/LEF luciferase reporter, five hours after addition of compound; read-out: TCF reporter Colo205 IC50
row,Compound,IC50
1,"[2H]C([2H])([2H])c1nc(NCc2cnn(Cc3ccc(C(F)(F)F)nc3)c2)nc2c1NC(=O)[C@H](C)N2C [Compound 494, (7S)-7,8-dimethyl-4-(methyl-d3)-2-(((1-((6-(trifluoromethyl)pyridin-3-yl)methyl)-1H-pyrazol-4-yl)methyl)amino)-7,8-dihydropteridin-6(5H)-one]",< 300 nM
2,"Cc1nc(N[C@H]2C[C@@H](NC(=O)Nc3ccc(Cl)nc3)C2)nc2c1NC(=O)[C@H](C)N2C [Compound 462, 1-(6-chloropyridin-3-yl)-3-(cis-3-(((S)-4,7,8-trimethyl-6-oxo-5,6,7,8-tetrahydropteridin-2-yl)amino)cyclobutyl)urea]",1000 to 5000 nM
3,"Cc1nc(NCc2ccnc(N3CCCCC3)c2)nc2c1NC(=O)[C@H](C)N2C [Compound 60, (S)-4,7,8-trimethyl-2-(((2-(piperidin-1-yl)pyridin-4-yl)methyl)amino)-7,8-dihydropteridin-6(5H)-one]",≥ 5000 nM
4,"Cc1nc(N[C@@H]2COC[C@H]2Oc2ccc(F)cc2)nc2c1NC(=O)[C@H](C)N2C (mixture of isomers) [Compound 297, (7S)-2-((trans-4-(4-fluorophenoxy)tetrahydrofuran-3-yl)amino)-4,7,8-trimethyl-7,8-dihydropteridin-6(5H)-one]",≥ 5000 nM
5,"Cc1nc(NCc2ccc(Nc3cnn(CC(F)(F)F)c3)nc2)nc2c1NC(=O)[C@H](C)N2C [Compound 126, (7S)-4,7,8-trimethyl-2-(((6-((1-(2,2,2-trifluoroethyl)-1H-pyrazol-4-yl)amino)pyridin-3-yl)methyl)amino)-7,8-dihydropteridin-6(5H)-one]",1000 to 5000 nM
6,"Cc1nc(NCc2cnn(Cc3ccc(F)cc3Cl)c2)nc2c1NC(=O)[C@H](C)N2C [Compound 65, (7S)-2-(((1-(2-chloro-4-fluorobenzyl)-1H-pyrazol-4-yl)methyl)amino)-4,7,8-trimethyl-7,8-dihydropteridin-6(5H)-one]",< 300 nM
7,"Cc1nc(NCc2cnn(Cc3ccc(Cl)nc3)c2)nc2c1NC(=O)[C@H](C(C)(C)C)N2C [Compound 438, (7S)-7-(tert-butyl)-2-(((1-((6-chloropyridin-3-yl)methyl)-1H-pyrazol-4-yl)methyl)amino)-4,8-dimethyl-7,8-dihydropteridin-6(5H)-one]",< 300 nM
8,"Cc1nc(NCc2cnn(Cc3cccnc3)c2)nc2c1NC(=O)[C@H](C)N2C [Compound 198, (7S)-4,7,8-trimethyl-2-(((1-(pyridin-3-ylmethyl)-1H-pyrazol-4-yl)methyl)amino)-7,8-dihydropteridin-6(5H)-one]",1000 to 5000 nM
9,"Cc1nc(NC2CN(C(=O)Cc3cccc(F)c3F)C2)nc2c1NC(=O)[C@H](C(C)C)N2C [Compound 632, (S)-2-((1-(2-(2,3-difluorophenyl)acetyl)azetidin-3-yl)amino)-7-isopropyl-4,8-dimethyl-7,8-dihydropteridin-6(5H)-one]",300 to 1000 nM
10,"Cc1nc(NCc2cnn(C[C@@H]3CCCN3c3cc(F)cc(F)c3)c2)nc2c1NC(=O)[C@H](C)N2C [Compound 219, (7S)-2-(((1-(((S)-1-(3,5-difluorophenyl)pyrrolidin-2-yl)methyl)-1H-pyrazol-4-yl)methyl)amino)-4,7,8-trimethyl-7,8-dihydropteridin-6(5H)-one]",< 300 nM
11,"CC[C@H]1C(=O)Nc2c(C)nc(NCc3cnn(Cc4ccc(OCC(F)(F)F)nc4)c3)nc2N1C [Compound 433, (7S)-7-ethyl-4,8-dimethyl-2-(((1-((6-(2,2,2-trifluoroethoxy)pyridin-3-yl)methyl)-1H-pyrazol-4-yl)methyl)amino)-7,8-dihydropteridin-6(5H)-one]",< 300 nM
12,"O=C1Nc2cnc(NCc3cnn(CCc4ccc(F)cc4)c3)nc2N[C@H]1CCO [Compound 13, (7S)-2-(((1-(4-fluorophenethyl)-1H-pyrazol-4-yl)methyl)amino)-7-(2-hydroxyethyl)-7,8-dihydropteridin-6(5H)-one]",≥ 5000 nM
13,"COc1cc(F)ccc1O[C@H]1C[C@H](Nc2nc(C)c3c(n2)N(C)[C@@H](C)C(=O)N3C)C1 [Compound 345, (7S)-2-((trans-3-(4-fluoro-2-methoxyphenoxy)cyclobutyl)amino)-4,5,7,8-tetramethyl-7,8-dihydropteridin-6(5H)-one]",300 to 1000 nM

# Further lines, results first:
row,IC50,Compound
1,300 to 1000 nM,"Cc1nc(NCc2cnn(C[C@H](O)c3ccc(F)cc3)c2)nc2c1NC(=O)[C@H](C)N2C [Compound 132, (7S)-2-[[1-[(2R)-2-(4-fluorophenyl)-2-hydroxy-ethyl]pyrazol-4-yl]methylamino]-4,7,8-trimethyl-5,7-dihydropteridin-6-one]"
2,< 300 nM,"COC1(C2C(=O)Nc3c(C)nc(N[C@H]4C[C@H](COc5ccc(C(F)(F)F)nc5)C4)nc3N2C)CCC1 (relative stereo) [Compound 669, 7-(1-methoxycyclobutyl)-4,8-dimethyl-2-((trans-3-(((6-(trifluoromethyl)pyridin-3-yl)oxy)methyl)cyclobutyl)amino)-7,8-dihydropteridin-6(5H)-one]"
3,< 300 nM,"COCC1(C)C(=O)Nc2c(C)nc(N[C@H]3C[C@H](Oc4cc(F)c(F)c(F)c4)C3)nc2N1C (relative stereo) [Compound 719, 7-(methoxymethyl)-4,7,8-trimethyl-2-((trans-3-(3,4,5-trifluorophenoxy)cyclobutyl)amino)-7,8-dihydropteridin-6(5H)-one]"
4,< 300 nM,"Cc1nn(Cc2ccc(F)cc2)cc1CNc1nc(C)c2c(n1)N(C)[C@@H](C)C(=O)N2 [Compound 73, (7S)-2-(((1-(4-fluorobenzyl)-3-methyl-1H-pyrazol-4-yl)methyl)amino)-4,7,8-trimethyl-7,8-dihydropteridin-6(5H)-one]"
5,< 300 nM,"Cc1nc(N[C@H]2C[C@@H](NC(=O)Nc3cc(F)c(F)c(F)c3)C2)nc2c1NC(=O)[C@H](C)N2C [Compound 472, 1-(3,4,5-trifluorophenyl)-3-(cis-3-(((S)-4,7,8-trimethyl-6-oxo-5,6,7,8-tetrahydropteridin-2-yl)amino)cyclobutyl)urea]"
6,≥ 5000 nM,"CO[C@H](C)[C@H]1C(=O)Nc2c(C)nc(N[C@H]3C[C@H](n4ccc(C(F)(F)F)n4)C3)nc2N1C [Compound 731, (S)-7-((R)-1-methoxyethyl)-4,8-dimethyl-2-((trans-3-(3-(trifluoromethyl)-1H-pyrazol-1-yl)cyclobutyl)amino)-7,8-dihydropteridin-6(5H)-one]"
7,< 300 nM,"CC[C@H]1C(=O)Nc2c(C)nc(N[C@H]3C[C@@H](COc4ccc(C(F)(F)F)nc4)C3)nc2N1C [Compound 646, (S)-7-ethyl-4,8-dimethyl-2-((cis-3-(((6-(trifluoromethyl)pyridin-3-yl)oxy)methyl)cyclobutyl)amino)-7,8-dihydropteridin-6(5H)-one]"
8,300 to 1000 nM,"Cc1nc(N[C@H]2C[C@@H](Nc3ncc(C(F)(F)F)cn3)C2)nc2c1NC(=O)[C@H](C(C)C)N2C [Compound 734, (S)-7-isopropyl-4,8-dimethyl-2-((cis-3-((5-(trifluoromethyl)pyrimidin-2-yl)amino)cyclobutyl)amino)-7,8-dihydropteridin-6(5H)-one]"
9,≥ 5000 nM,"Cc1nc(N[C@H]2CCN(Cc3ccccc3)C2)nc2c1NC(=O)[C@H](C)N2C [Compound 371, (7S)-2-(((S)-1-benzylpyrrolidin-3-yl)amino)-4,7,8-trimethyl-7,8-dihydropteridin-6(5H)-one]"
10,≥ 5000 nM,"Cc1nc(N[C@H]2C[C@@H](NC(=O)N3CCC(F)(F)CC3)C2)nc2c1NC(=O)[C@H](C(C)C)N2C [Compound 525, 4,4-difluoro-N-(cis-3-(((S)-7-isopropyl-4,8-dimethyl-6-oxo-5,6,7,8-tetrahydropteridin-2-yl)amino)cyclobutyl)piperidine-1-carboxamide]"
11,300 to 1000 nM,"Cc1nc(N[C@H]2C[C@@H](Nc3cnc(C(F)(F)F)cn3)C2)nc2c1NC(=O)C1(CCOC1)N2C (relative stereo) [Compound 687, 4′,8′-dimethyl-2′-((cis-3-((5-(trifluoromethyl)pyrazin-2-yl)amino)cyclobutyl)amino)-4,5,5′,8′-tetrahydro-2H,6′H-spiro[furan-3,7′-pteridin]-6′-one]"
12,< 300 nM,"C[C@H]1C(=O)Nc2cnc(NCc3cnn(Cc4ccc(F)c(F)c4)c3)nc2N1C [Compound 141, (7S)-2-(((1-(3,4-difluorobenzyl)-1H-pyrazol-4-yl)methyl)amino)-7,8-dimethyl-7,8-dihydropteridin-6(5H)-one]"
13,< 300 nM,"Cc1nc(N[C@H]2C[C@H](Oc3ccc(F)cc3F)C2)nc2c1N(C)C(=O)[C@H](C)N2C [Compound 296, (7S)-2-((trans-3-(2,4-difluorophenoxy)cyclobutyl)amino)-4,5,7,8-tetramethyl-7,8-dihydropteridin-6(5H)-one]"
14,< 300 nM,"COC1(C2C(=O)Nc3c(C)nc(N[C@H]4C[C@@H](Nc5cnc(C(F)(F)F)cn5)C4)nc3N2C)CCC1 (relative stereo) [Compound 672, 7-(1-methoxycyclobutyl)-4,8-dimethyl-2-((cis-3-((5-(trifluoromethyl)pyrazin-2-yl)amino)cyclobutyl)amino)-7,8-dihydropteridin-6(5H)-one]"

# Same assay, conditions: Homo sapiens, COLO 205, 5 h, R-isomer at C2 (corresponding to C2 S-isomer); Colo 205 TCF/LEF luciferase reporter, 5 h; read-out: TCF reporter Colo205 IC50
row,IC50,Compound
1,1000 to 5000 nM,Cc1nc(NCc2cnn(Cc3ccc(Cl)nc3)c2)nc2c1N(C)C(=O)[C@@H](CCO)N2C [Compound I-1644]
2,1000 to 5000 nM,Cc1nc(NCc2cnn(Cc3ccc(C(F)(F)F)nc3)c2)nc2c1NC(=O)[C@@H](CC(F)(F)F)N2C [Compound I-1645]

# Reference: patent US20230312587A1, “PTERIDINONE COMPOUNDS AND USES THEREOF” (Vertex Pharmaceutical Incorporated, priority 2018, published 2023)
